Laboratory results published in patent publication US10219516B2, “Molecules having pesticidal utility, and intermediates, compositions, and processes, related thereto” (priority 2015, dated 2019).

Assays:
[1] = system: Beet Armyworm (Spodoptera exigua, LAPHEG); assay: Bioassay on Beet Armyworm (BAW), 128-well diet tray assay; assay type: in vivo; conditions: Species BAW (Beet Armyworm), read-out: BAW (Biological Results, rating)
In short: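 Second-instar larvae, one to five per well, placed on artificial diet surface-treated with 50 μg/cm^2 compound applied in 90:10 acetone-water and dried. Held 5–7 days at 25° C., 14:10 light-dark. Percent mortality recorded per well and averaged over eight wells.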

[2] = system: Yellow Fever Mosquito (Aedes aegypti, AEDSAE); assay: Bioassay on Yellow Fever Mosquito (YFM), 96-well plate larval assay; assay type: in vivo; conditions: Species YFM (Yellow Fever Mosquito)
In short: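 Compound stocks at 4000 ppm in DMSO were diluted with 90:10 water/acetone, and 15 μL aliquots were dispensed into six replicate plates. About 1-day-old larvae in liver-powder water were added per well. Plates were covered and held at room temperature for 3 days before each well was scored for mortality.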

[3] = system: Green Peach Aphid (Myzus persicae, MYZUPE); assay: Bioassay on Green Peach Aphid (GPA), foliar spray on infested cabbage seedlings; assay type: in vivo; conditions: foliar, 72 h, Species GPA (Green Peach Aphid), read-out: GPA (Biological Results, rating)
In short: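 Cabbage seedlings (2-3 true leaves) infested with 20-50 wingless adult and nymph aphids one day before treatment; sprayed to runoff at 200 ppm in 0.025% Tween 20 water with 20% acetone/methanol, four pots per treatment. Held three days at about 25° C; live aphids counted, % control by Abbott's correction versus solvent check.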

[4] = system: Cabbage Looper (Trichoplusia ni, TRIPNI); assay: Bioassay on Cabbage Looper (CL), 128-well diet tray assay; assay type: in vivo; conditions: Trichoplusia ni; Species CL (Cabbage Looper); read-out: CL (Biological Results, rating)
In short: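 Mortality of second instar larvae exposed to diet coated with 50 μg/cm^2 compound (acetone-water 90:10 vehicle, dried); 25° C., 5–7 days.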

| Compound | melting point | also measured |
| --- | --- | --- |
| O=C(O)C1C(c2cc(F)cc(Cl)c2)C1(Cl)Cl (stereo not shown) | 138 to 140 °C | – |
| O=C(Nc1ccc(F)cc1)c1cc(Cl)cc([N+](=O)[O-])c1 | 209 to 210 °C | – |
| O=C(O)C1C(c2cc(F)c(Br)c(F)c2)C1(Cl)Cl (stereo not shown) | 178.3 to 188.6 °C | – |
| O=C(O)C1C(c2ccc(F)c(Cl)c2)C1(Cl)Cl (stereo not shown) [C420] | 119 to 121 °C | – |
| CCc1ccc(N)cc1C(=O)Nc1ccc(F)cc1 | 129 to 131 °C | – |
| Cc1ccc([N+](=O)[O-])cc1N(C)C(=O)OC(C)(C)C | 57 to 60 °C | – |
| N#Cc1cc(Cl)cc(C2C(C(=O)O)C2(Cl)Cl)c1 (stereo not shown) | 173 to 175 °C | – |
| O=C(Nc1ccc(-n2cccn2)cc1)c1cc([N+](=O)[O-])ccc1Cl | 200 to 205 °C | – |
| CC(C)(C)OC(=O)N(C(=O)OC(C)(C)C)c1c(N)cc(F)cc1F | 102 to 107 °C | – |
| O=C(O)C1C(c2cc(Cl)cc(Br)c2)C1(Cl)Cl (stereo not shown) | 161 to 163 °C | – |
| COc1c(Cl)cc(C2C(C(=O)O)C2(Cl)Cl)cc1Cl (stereo not shown) | 161 to 164 °C | – |
| O=C(O)C1C(c2cc(Cl)cc(C(F)(F)F)c2)C1(Cl)Cl (stereo not shown) | 113 to 115 °C | – |
| Cc1c(Cl)cc(C2C(C(=O)O)C2(Cl)Cl)cc1Cl (stereo not shown) | 181 to 183 °C | – |
| Nc1ccc(Cl)c(C(=O)Nc2ccc(-c3ncco3)cc2)c1 | 227 °C (dec.) | – |
| COc1ccc(C2C(c3cc(F)c(Br)c(F)c3)C2(Cl)Cl)cc1 (stereo not shown) | 104 to 109.3 °C | – |
| O=C(O)c1cc(NC(=O)C2C(c3cc(Cl)cc(Cl)c3)C2(Cl)Cl)cc(Cl)c1Cl (stereo not shown) | 231 to 235 °C | – |
| CCOc1ccc(C2C(C(=O)O)C2(Cl)Cl)cc1 (stereo not shown) | 129 to 130 °C | – |
| Cc1cc([N+](=O)[O-])ccc1N(C)C(=O)OC(C)(C)C | 98 to 101 °C | – |
| C=Cc1ccc([N+](=O)[O-])cc1C(=O)Nc1ccc(F)cc1 | 158 to 160 °C | – |
| Cc1ccc(C(=O)Nc2ccc(F)cc2)cc1[N+](=O)[O-] | 136 to 138 °C | – |
| Nc1ccc(OC(F)(F)F)c(C(=O)Nc2ccc(F)cc2)c1 | 115 to 117 °C | – |
| O=C(O)C1C(c2cc(C(F)(F)F)cc(C(F)(F)F)c2)C1(Cl)Cl (stereo not shown) | 112 to 114 °C | – |
| O=C(O)C1C(c2cccc(C(F)(F)F)c2)C1(Cl)Cl (stereo not shown) | 86 to 88 °C | – |

| Compound | melting point | also measured |
| --- | --- | --- |
| Cc1ccc([N+](=O)[O-])cc1NC(=O)OC(C)(C)C | 137 to 145 °C | – |
| O=C(O)C1C(c2ccc(F)c(Cl)c2)C1(Cl)Cl (stereo not shown) [C16] | 121 to 123 °C | – |
| Nc1cc(Cl)cc(C(=O)Nc2ccc(F)cc2)c1 | 133 to 136 °C | – |
| Cc1cc(NC(=O)OC(C)(C)C)ccc1NC(=O)c1cccc(N)c1 | 143 to 161 °C | – |
| CC(C)(C)OC(=O)N(C(=O)OC(C)(C)C)c1ccc(F)cc1N | 104 to 115 °C | – |
| O=C(Nc1ccc(F)cc1)c1cc([N+](=O)[O-])ccc1OC(F)(F)F | 175 to 177 °C | – |
| Cc1cc(Cl)cc(C2C(C(=O)O)C2(Cl)Cl)c1 (stereo not shown) | 124 to 126 °C | – |
| O=C(O)C1C(c2cc(Cl)c(Cl)cc2Cl)C1(Cl)Cl (stereo not shown) | 189 to 192 °C | – |
| O=C(O)C1C(c2ccc(OC(F)(F)F)c(Cl)c2)C1(Cl)Cl (stereo not shown) | 134 to 136 °C | – |
| COc1ccc(/C=C/c2ccc(Cl)c(Cl)c2)cc1 | 91 to 94 °C | – |
| O=C(O)C1C(c2cc(Br)cc(Br)c2)C1(Cl)Cl (stereo not shown) | 157 to 159 °C | – |
| O=C(O)C1C(c2ccc(C(F)(F)C(F)(F)F)cc2)C1(Cl)Cl (stereo not shown) | 116 to 118 °C | – |
| O=C(Nc1ccc(-c2ncco2)cc1)c1cc([N+](=O)[O-])ccc1Cl | 192 to 194 °C | – |
| O=C(Nc1ccc(F)c(C(F)(F)F)c1)c1cc([N+](=O)[O-])ccc1Cl | 192 to 202 °C | – |
| Nc1ccc(Cl)c(C(=O)Nc2ccc(-n3cccn3)cc2)c1 | 50 to 81 °C | – |
| Cc1cc(C2C(C(=O)O)C2(Cl)Cl)cc(Cl)c1Cl (stereo not shown) | 157 to 159 °C | – |
| COc1c(Cl)cc(C2C(C(=O)Nc3ccc(Cl)c(C(=O)O)c3)C2(Cl)Cl)cc1Cl (stereo not shown) | 227 to 231 °C | – |
| O=C(O)c1cc(NC(=O)C2C(c3cc(Cl)cc(Cl)c3)C2(Cl)Cl)c(Cl)cc1Cl (stereo not shown) | 263 to 266 °C | – |
| O=C(O)C1C(c2ccc(Cl)c(F)c2)C1(Cl)Cl (stereo not shown) | 140 to 142 °C | – |
| O=C(Nc1ccc(F)cc1)c1cccc([N+](=O)[O-])n1 | 169 to 170 °C | – |
| O=C(Nc1ccc(F)cc1F)c1cc(NC(=O)[C@H]2[C@H](c3ccc(Cl)c(Cl)c3)C2(Cl)Cl)ccc1Cl (relative stereo) [F39, trans-2-Chloro-5-(2,2-dichloro-3-(3,4-dichlorophenyl)cyclopropane-1-carboxamido)-N-(2,4-difluorophenyl)benzamide] | – | pest or weed control at 50 µg/cm2 [1]: 50 to 100%; YFM (Biological Results, rating) [2]: A (80-100); pest or weed control at 200 µg/mL [3]: 80 to 100%; pest or weed control at 50 µg/cm2 [4]: 50 to 100% |
| Cc1cc(NC(=O)OC(C)(C)C)ccc1NC(=O)c1cc([N+](=O)[O-])ccc1Cl | 195 to 200 °C | – |
| O=C(Nc1c(F)cccc1F)c1cc(NC(=O)[C@H]2[C@H](c3ccc(Cl)c(F)c3)C2(Cl)Cl)ccc1Cl (relative stereo) [F163, trans-2-Chloro-5-(2,2-dichloro-3-(4-chloro-3-fluorophenyl)cyclopropane-1-carboxamido)-N-(2,6-difluorophenyl)benzamide] | – | pest or weed control at 50 µg/cm2 [1]: 50 to 100%; YFM (Biological Results, rating) [2]: B (More than 0-Less than 80); pest or weed control at 200 µg/mL [3]: 0 to 80%; pest or weed control at 50 µg/cm2 [4]: 50 to 100% |
